Source: ChEMBL document CHEMBL1240496, “Development of potent glucagon-like peptide-1 agonists with high enzyme stability via introduction of multiple lactam bridges” (J Med Chem, 2010)
Bridge positions count the residues as written; N and C are the ends. Peptide text beside a SMILES is read from it.

Key:
[1] = target: T1, Glucagon-like peptide 1 receptor (Homo sapiens, UniProt P43220); test: Activation of human GLP1 receptor expressed in HEK293 cells assessed as increase in cAMP accumulation; assay type: functional, cell-based
[2] = target: T1, Glucagon-like peptide 1 receptor; test: Activation of human GLP1 receptor expressed in HEK293 cells assessed as increase in cAMP accumulation relative to GLP1; assay type: functional, cell-based
DPP4 = test: Chemical stability of the compound assessed as half life up to 24 hrs by HPLC analysis in presence of human recombinant DPP4; assay type: physicochemical
NEP 24.11 = test: Chemical stability of the compound assessed as half life up to 24 hrs by HPLC analysis in presence of human recombinant NEP 24.11; assay type: physicochemical

T1 sequence (P43220 whole entry): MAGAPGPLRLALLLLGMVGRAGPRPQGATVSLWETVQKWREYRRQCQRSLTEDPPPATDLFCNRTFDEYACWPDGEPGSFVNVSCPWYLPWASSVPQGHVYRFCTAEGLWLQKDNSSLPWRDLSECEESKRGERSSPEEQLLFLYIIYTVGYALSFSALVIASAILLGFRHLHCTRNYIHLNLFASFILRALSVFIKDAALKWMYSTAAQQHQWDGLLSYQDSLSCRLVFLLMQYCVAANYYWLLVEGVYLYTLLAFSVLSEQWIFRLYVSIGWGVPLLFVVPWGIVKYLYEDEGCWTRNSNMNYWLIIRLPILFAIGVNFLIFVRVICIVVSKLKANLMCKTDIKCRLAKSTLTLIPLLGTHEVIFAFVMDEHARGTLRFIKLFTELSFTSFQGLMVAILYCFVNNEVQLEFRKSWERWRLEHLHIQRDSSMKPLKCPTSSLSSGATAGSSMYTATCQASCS

EC50 ([1]; read-out: EC50) | Activity [2] | half-life (DPP4) | half-life (NEP 24.11) | EC50 ([1]; read-out: pEC50 (converted)) | Compound
1.6 nM | 290% | 6 h | 3.5 h |  | CC[C@H](C)[C@H](NC(=O)[C@H](Cc1ccccc1)NC(=O)[C@H](CCC(=O)O)NC(=O)[C@@H]1CCCCNC(=O)CC[C@H](NC(=O)[C@H](CCC(=O)O)NC(=O)[C@H](CC(C)C)NC(=O)[C@H](Cc2ccc(O)cc2)NC(=O)[C@H](CO)NC(=O)[C@H](CO)NC(=O)[C@@H](NC(=O)[C@H](CC(=O)O)NC(=O)[C@H](CO)NC(=O)[C@@H](NC(=O)[C@H](Cc2ccccc2)NC(=O)[C@@H](NC(=O)CNC(=O)[C@H](CCC(=O)O)NC(=O)[C@H](C)NC(=O)[C@@H](N)Cc2cnc[nH]2)[C@@H](C)O)[C@@H](C)O)C(C)C)C(=O)N[C@@H](CCC(N)=O)C(=O)N[C@@H](C)C(=O)N[C@@H](C)C(=O)N1)C(=O)N[C@H]1CCC(=O)NCCCC[C@@H](C(=O)NCC(=O)N[C@@H](CCCNC(=N)N)C(N)=O)NC(=O)[C@H](C(C)C)NC(=O)[C@H](CC(C)C)NC(=O)[C@H](Cc2c[nH]c3ccccc23)NC1=O (H-HAEGTFTSDVSSYLEEQAAKEFIEWLVKGR-NH2; lactam 16-20, 24-28)
0.6 nM | 770% | 2.1 h | 10 h |  | CC[C@H](C)[C@H](NC(=O)[C@H](Cc1ccccc1)NC(=O)[C@H](CCC(=O)O)NC(=O)[C@H](CCCCN)NC(=O)[C@H](C)NC(=O)[C@H](C)NC(=O)[C@@H]1CCCCNC(=O)CC[C@H](NC(=O)[C@H](CO)NC(=O)[C@@H](NC(=O)[C@H](CC(=O)O)NC(=O)[C@H](CO)NC(=O)[C@@H](NC(=O)[C@H](Cc2ccccc2)NC(=O)[C@@H](NC(=O)CNC(=O)[C@H](CCC(=O)O)NC(=O)[C@H](C)NC(=O)[C@@H](N)Cc2cnc[nH]2)[C@@H](C)O)[C@@H](C)O)C(C)C)C(=O)N[C@@H](Cc2ccc(O)cc2)C(=O)N[C@@H](CC(C)C)C(=O)NCC(=O)N1)C(=O)N[C@@H](C)C(=O)N[C@@H](Cc1c[nH]c2ccccc12)C(=O)N[C@@H](CC(C)C)C(=O)N[C@H](C(=O)N[C@@H](CCCCN)C(=O)NCC(=O)N[C@@H](CCCNC(=N)N)C(N)=O)C(C)C (H-HAEGTFTSDVSEYLGKAAKEFIAWLVKGR-NH2; lactam 12-16)
2.2 nM | 210% | 7.3 h | 1.2 h |  | CC[C@H](C)[C@H](NC(=O)[C@H](Cc1ccccc1)NC(=O)[C@H](CCC(=O)O)NC(=O)[C@@H]1CCC(=O)NCCCC[C@H](NC(=O)[C@H](CCC(=O)O)NC(=O)[C@H](CC(C)C)NC(=O)[C@H](Cc2ccc(O)cc2)NC(=O)[C@H](CO)NC(=O)[C@H](CO)NC(=O)[C@@H](NC(=O)[C@H](CC(=O)O)NC(=O)[C@H](CO)NC(=O)[C@@H](NC(=O)[C@H](Cc2ccccc2)NC(=O)[C@@H](NC(=O)CNC(=O)[C@H](CCC(=O)O)NC(=O)[C@H](C)NC(=O)[C@@H](N)Cc2cnc[nH]2)[C@@H](C)O)[C@@H](C)O)C(C)C)C(=O)N[C@@H](CCC(N)=O)C(=O)N[C@@H](C)C(=O)N[C@@H](C)C(=O)N1)C(=O)N[C@H]1CCCCNC(=O)CC[C@@H](C(=O)NCC(=O)N[C@@H](CCCNC(=N)N)C(N)=O)NC(=O)[C@H](C(C)C)NC(=O)[C@H](CC(C)C)NC(=O)[C@H](Cc2c[nH]c3ccccc23)NC1=O (H-HAEGTFTSDVSSYLEKQAAEEFIKWLVEGR-NH2; lactam 16-20, 24-28)
5.3 nM | 90% | 3.3 h | 6.9 h | 2.51 nM | CC[C@H](C)[C@H](NC(=O)[C@H](Cc1ccccc1)NC(=O)[C@H](CCC(=O)O)NC(=O)[C@H](CCCCN)NC(=O)[C@H](C)NC(=O)[C@H](C)NC(=O)[C@H](CCC(N)=O)NC(=O)CNC(=O)[C@H](CCC(=O)O)NC(=O)[C@H](CC(C)C)NC(=O)[C@H](Cc1ccc(O)cc1)NC(=O)[C@H](CO)NC(=O)[C@H](CO)NC(=O)[C@@H](NC(=O)[C@H](CC(=O)O)NC(=O)[C@H](CO)NC(=O)[C@@H](NC(=O)[C@H](Cc1ccccc1)NC(=O)[C@@H](NC(=O)CNC(=O)[C@H](CCC(=O)O)NC(=O)[C@H](C)NC(=O)[C@@H](N)Cc1cnc[nH]1)[C@@H](C)O)[C@@H](C)O)C(C)C)C(=O)N[C@H]1CCC(=O)NCCCC[C@@H](C(=O)NCC(=O)N[C@@H](CCCNC(=N)N)C(N)=O)NC(=O)[C@H](C(C)C)NC(=O)[C@H](CC(C)C)NC(=O)[C@H](Cc2c[nH]c3ccccc23)NC1=O
7 nM | 70% | 2.9 h | 17 h |  | CC[C@H](C)[C@H](NC(=O)[C@H](Cc1ccccc1)NC(=O)[C@H](CCC(=O)O)NC(=O)[C@H](CCCCN)NC(=O)[C@H](C)NC(=O)[C@H](C)NC(=O)[C@H](CCC(N)=O)NC(=O)CNC(=O)[C@H](CCC(=O)O)NC(=O)[C@@H]1CCC(=O)NCCCC[C@H](NC(=O)[C@H](CC(=O)O)NC(=O)[C@H](CO)NC(=O)[C@@H](NC(=O)[C@H](Cc2ccccc2)NC(=O)[C@@H](NC(=O)CNC(=O)[C@H](CCC(=O)O)NC(=O)[C@H](C)NC(=O)[C@@H](N)Cc2cnc[nH]2)[C@@H](C)O)[C@@H](C)O)C(=O)N[C@@H](CO)C(=O)N[C@@H](CO)C(=O)N[C@@H](Cc2ccc(O)cc2)C(=O)N1)C(=O)N[C@H]1CCCCNC(=O)CC[C@@H](C(=O)NCC(=O)N[C@@H](CCCNC(=N)N)C(N)=O)NC(=O)[C@H](C(C)C)NC(=O)[C@H](CC(C)C)NC(=O)[C@H](Cc2c[nH]c3ccccc23)NC1=O (H-HAEGTFTSDKSSYEEGQAAKEFIKWLVEGR-NH2; lactam 10-14, 24-28)
1 nM | 460% | 4.1 h | 18 h |  | CC[C@H](C)[C@H](NC(=O)[C@H](Cc1ccccc1)NC(=O)[C@H](CCC(=O)O)NC(=O)[C@H](CCCCN)NC(=O)[C@H](C)NC(=O)[C@H](C)NC(=O)[C@H](CCC(N)=O)NC(=O)[C@@H]1CCC(=O)NCCCC[C@H](NC(=O)[C@H](CO)NC(=O)[C@@H](NC(=O)[C@H](CC(=O)O)NC(=O)[C@H](CO)NC(=O)[C@@H](NC(=O)[C@H](Cc2ccccc2)NC(=O)[C@@H](NC(=O)CNC(=O)[C@H](CCC(=O)O)NC(=O)[C@H](C)NC(=O)[C@@H](N)Cc2cnc[nH]2)[C@@H](C)O)[C@@H](C)O)C(C)C)C(=O)N[C@@H](Cc2ccc(O)cc2)C(=O)N[C@@H](CC(C)C)C(=O)N[C@@H](CCC(=O)O)C(=O)N1)C(=O)N[C@H]1CCCCNC(=O)CC[C@@H](C(=O)NCC(=O)N[C@@H](CCCNC(=N)N)C(N)=O)NC(=O)[C@H](C(C)C)NC(=O)[C@H](CC(C)C)NC(=O)[C@H](Cc2c[nH]c3ccccc23)NC1=O (H-HAEGTFTSDVSKYLEEQAAKEFIKWLVEGR-NH2; lactam 12-16, 24-28)
